Assay results as given in patent US8207172B2 (Bayer Intellectual Property GmbH, priority 2004, dated 2012).
Structures can show the parent of a compound that is named as a salt.

Tests used:
[1] = system: A431 cells (human epidermoid carcinoma); experiment: In vitro tumor cell proliferation assay (Cell Titer-Glo luminescent cell viability), A431; format: cell-based; settings: A-431, 72 h, 72 hours of drug exposure, ATP luminescence readout, read-out: IC50, anti-proliferative activity (inhibition of cell proliferation)
In short: (§1)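 IC50 values reflect ATP-based luminescence (CellTiter-Glo) after 72 h compound exposure at 37°C. Both lines, A431 and BT474, were plated in RPMI with 10% FBS and received serial dilutions ranging from 100 μM to 64 pM final at 0.1% DMSO.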

[2] = system: BT474 (human breast carcinoma); experiment: In vitro tumor cell proliferation assay (Cell Titer-Glo luminescent cell viability), BT474; format: cell-based; settings: BT-474, 72 h, BT474 cells, 72 hours of drug exposure, ATP luminescence readout, read-out: IC50, anti-proliferative activity (inhibition of cell proliferation)
In short: as §1

Structure (SMILES)	IC50 [1] [µM]	IC50 [2] [µM]
O=C(Cn1ncc2c1CCc1c-2sc2ncnc(Nc3ccc(OCc4cccc(F)c4)c(Cl)c3)c12)NCCN1CCOCC1 [Example 197, 2-[6-({3-chloro-4-[(3-fluorobenzyl)oxy]phenyl}amino)-4,5-dihydro-3H-pyrimido[5′,4′:4,5]thieno[2,3-e]indazol-3-yl]-N-(2-morpholin-4-ylethyl)acetamide]	≤ 50	≤ 1
CC(C)NC[C@@H](O)Cn1cc2c(n1)CCc1c-2sc2ncnc(Nc3ccc(OCc4cccc(F)c4)c(Cl)c3)c12 [Example 159, (2R)-1-[6-({3-chloro-4-[(3-fluorobenzyl)oxy]phenyl}amino)-4,5-dihydro-2H-pyrimido[5′,4′:4,5]thieno[2,3-e]indazol-2-yl]-3-(isopropylamino)propan-2-ol trifluoroacetate (salt)]	≤ 50	≤ 5
CN(C)CCNC(=O)Cn1ncc2c1CCc1c-2sc2ncnc(Nc3ccc(OCc4cccc(F)c4)c(Cl)c3)c12 [Example 193, 2-[6-({3-chloro-4-[(3-fluorobenzyl)oxy]phenyl}amino)-4,5-dihydro-3H-pyrimido[5′,4′:4,5]thieno[2,3-e]indazol-3-yl]-N-[2-(dimethylamino)ethyl]acetamide]	≤ 50	≤ 1
CCNC[C@@H](O)Cn1ncc2c1CCc1c-2sc2ncnc(Nc3ccc(OCc4cccc(F)c4)c(Cl)c3)c12 [Example 169, (2R)-1-[6-({3-chloro-4-[(3-fluorobenzyl)oxy]phenyl}amino)-4,5-dihydro-3H-pyrimido[5′,4′:4,5]thieno[2,3-e]indazol-3-yl]-3-(ethylamino)propan-2-ol trifluoroacetate (salt)]	≤ 50	≤ 1
CN1CCN(C[C@@H](O)Cn2ncc3c2CCc2c-3sc3ncnc(Nc4ccc(OCc5cccc(F)c5)c(Cl)c4)c23)CC1 [Example 167, (2R)-1-[6-({3-chloro-4-[(3-fluorobenzyl)oxy]phenyl}amino)-4,5-dihydro-3H-pyrimido[5′,4′:4,5]thieno[2,3-e]indazol-3-yl]-3-(4-methylpiperazin-1-yl)propan-2-ol trifluoroacetate (salt)]	≤ 50	≤ 1
CC(C)CNC[C@@H](O)Cn1cc2c(n1)CCc1c-2sc2ncnc(Nc3ccc(OCc4cccc(F)c4)c(Cl)c3)c12 [Example 161, (2R)-1-[6-({3-chloro-4-[(3-fluorobenzyl)oxy]phenyl}amino)-4,5-dihydro-2H-pyrimido[5′,4′:4,5]thieno[2,3-e]indazol-2-yl]-3-(isobutylamino)propan-2-ol trifluoroacetate (salt)]	≤ 50	≤ 5
Fc1cccc(COc2ccc(Nc3ncnc4sc5c(c34)CCc3c-5cnn3CCN3CCOCC3)cc2Cl)c1 [Example 86, N-{3-chloro-4-[(3-fluorobenzyl)oxy]phenyl}-3-(2-morpholin-4-ylethyl)-4,5-dihydro-3H-pyrimido[5′,4′:4,5]thieno[2,3-e]indazol-6-amine]	≤ 50	≤ 1
CS(=O)(=O)CCNCCn1cc2c(n1)CCc1c-2sc2ncnc(Nc3ccc(OCc4cccc(F)c4)c(Cl)c3)c12 [Example 78, N-{3-chloro-4-[(3-fluorobenzyl)oxy]phenyl}-2-(2-{[2-(methylsulfonyl)ethyl]amino}ethyl)-4,5-dihydro-2H-pyrimido[5′,4′:4,5]thieno[2,3-e]indazol-6-amine]	≤ 5	≤ 1
CCN1CCN(CCn2cc3c(n2)CCc2c-3sc3ncnc(Nc4ccc(F)c(Cl)c4)c23)CC1 [Example 36, N-(3-chloro-4-fluorophenyl)-2-[2-(4-ethylpiperazin-1-yl)ethyl]-4,5-dihydro-2H-pyrimido[5′,4′:4,5]thieno[2,3-e]indazol-6-amine]	≤ 5	≤ 5
CN(C)CC(=O)N1CCC(Cn2cc3c(n2)CCc2c-3sc3ncnc(Nc4ccc(OCc5cccc(F)c5)c(Cl)c4)c23)CC1 [Example 241, N-{3-chloro-4-[(3-fluorobenzyl)oxy]phenyl}-2-({1-[(dimethylamino)acetyl]piperidin-4-yl}methyl)-4,5-dihydro-2H-pyrimido[5′,4′:4,5]thieno[2,3-e]indazol-6-amine trifluoroacetate]	≤ 5	≤ 1
CS(=O)(=O)CCNC[C@@H](O)Cn1cc2c(n1)CCc1c-2sc2ncnc(Nc3ccc(OCc4cccc(F)c4)c(Cl)c3)c12 [Example 154, (2R)-1-[6-({3-chloro-4-[(3-fluorobenzyl)oxy]phenyl}amino)-4,5-dihydro-2H-pyrimido[5′,4′:4,5]thieno[2,3-e]indazol-2-yl]-3-{[2-(methylsulfonyl)ethyl]amino} propan-2-ol trifluoroacetate (salt)]	≤ 50	≤ 1
CN1CCN(CCn2cc3c(n2)CCc2c-3sc3ncnc(Nc4ccc5c(cnn5Cc5ccccn5)c4)c23)CC1 [Example 338, 2-[2-(4-methylpiperazin-1-yl)ethyl]-N-[1-(pyridin-2-ylmethyl)-1H-indazol-5-yl]-4,5-dihydro-2H-pyrimido[5′,4′:4,5]thieno[2,3-e]indazol-6-amine]	≤ 50	≤ 1
CCN1CCN(CCn2cc3c(n2)CCc2c-3sc3ncnc(Nc4ccc5c(cnn5Cc5ccccc5)c4)c23)CC1 [Example 305, N-(1-benzyl-1H-indazol-5-yl)-2-[2 (4-ethylpiperazin-1-yl)ethyl]-4,5-dihydro-2H-pyrimido[5′,4′:4,5]thieno[2,3-e]indazol-6-amine]	≤ 5	≤ 1
CCCc1nccn1CCn1cc2c(n1)CCc1c-2sc2ncnc(Nc3ccc(F)c(Cl)c3)c12 [Example 41, N-(3-chloro-4-fluorophenyl)-2-[2-(2-propyl-1H-imidazol-1-yl)ethyl]-4,5-dihydro-2H-pyrimido[5′,4′:4,5]thieno[2,3-e]indazol-6-amine]	≤ 5	≤ 5
CCN(CC)C[C@@H](O)Cn1ncc2c1CCc1c-2sc2ncnc(Nc3ccc(OCc4cccc(F)c4)c(Cl)c3)c12 [Example 168, (2R)-1-[6-({3-chloro-4-[(3-fluorobenzyl)oxy]phenyl}amino)-4,5-dihydro-3H-pyrimido[5′,4′:4,5]thieno[2,3-e]indazol-3-yl]-3-(diethylamino)propan-2-ol trifluoroacetate (salt)]	≤ 50	≤ 1
CN(C)C(=O)Cn1cc2c(n1)CCc1c-2sc2ncnc(Nc3ccc(OCc4cccc(F)c4)c(Cl)c3)c12 [Example 184, 2-[6-({3-chloro-4-[(3-fluorobenzyl)oxy]phenyl}amino)-4,5-dihydro-2H-pyrimido[5′,4′:4,5]thieno[2,3-e]indazol-2-yl]-N,N-dimethylacetamide]	≤ 5	≤ 1

Continued, values first:

IC50 [1] [µM]	IC50 [2] [µM]	Structure (SMILES)
≤ 5	≤ 1	CCCN1CCC(CCn2cc3c(n2)CCc2c-3sc3ncnc(Nc4ccc(OCc5cccc(F)c5)c(Cl)c4)c23)CC1 [Example 253, N-{3-chloro-4-[(3-fluorobenzyl)oxy]phenyl}-2-[2-(1-propylpiperidin-4-yl)ethyl]-4,5-dihydro-2H-pyrimido[5′,4′:4,5]thieno[2,3-e]indazol-6-amine]
≤ 5	≤ 1	O=C(CN1CCOCC1)N1CCC(Cn2cc3c(n2)CCc2c-3sc3ncnc(Nc4ccc(OCc5cccc(F)c5)c(Cl)c4)c23)CC1 [Example 238, N-{3-chloro-4-[(3-fluorobenzyl)oxy]phenyl}-2-{[1-(morpholin-4-ylacetyl)piperidin-4-yl]methyl}-4,5-dihydro-2H-pyrimido[5′,4′:4,5]thieno[2,3-e]indazol-6-amine]
≤ 5	≤ 1	CN(C)C1CCN(CCn2cc3c(n2)CCc2c-3sc3ncnc(Nc4ccc(OCc5cccc(F)c5)c(Cl)c4)c23)C1 (stereo not drawn) [Example 66, N-{3-chloro-4-[(3-fluorobenzyl)oxy]phenyl}-2-{2-[3-(dimethylamino)pyrrolidin-1-yl]ethyl}-4,5-dihydro-2H-pyrimido[5′,4′:4,5]thieno[2,3-e]indazol-6-amine]
≤ 5	≤ 1	CCN1CCC(Cn2cc3c(n2)CCc2c-3sc3ncnc(Nc4ccc(OCc5cccc(F)c5)c(Cl)c4)c23)CC1 [Example 244, N-{3-chloro-4-[(3-fluorobenzyl)oxy]phenyl}-2-[(1-ethylpiperidin-4-yl)methyl]-4,5-dihydro-2H-pyrimido[5′,4′:4,5]thieno[2,3-e]indazol-6-amine]
≤ 5	≤ 1	OCCn1ncc2c1CCc1c-2sc2ncnc(Nc3ccc4c(cnn4Cc4ccccc4)c3)c12 [Example 310, 2-{6-[(1-benzyl-1H-indazol-5-yl)amino]-4,5-dihydro-3H-pyrimido[5′,4′:4,5]thieno[2,3-e]indazol-3-yl}ethanol]
≤ 5	≤ 1	CC(C)N1CCC(n2cc3c(n2)CCc2c-3sc3ncnc(Nc4ccc(OCc5cccc(F)c5)c(Cl)c4)c23)CC1 [Example 227, N-{3-chloro-4-[(3-fluorobenzyl)oxy]phenyl}-2-(1-isopropylpiperidin-4-yl)-4,5-dihydro-2H-pyrimido[5′,4′:4,5]thieno[2,3-e]indazol-6-amine]
≤ 5	≤ 1	CCN1CCN(C(=O)Cn2cc3c(n2)CCc2c-3sc3ncnc(Nc4ccc(OCc5cccc(F)c5)c(Cl)c4)c23)CC1 [Example 185, N-{3-chloro-4-[(3-fluorobenzyl)oxy]phenyl}-2-[2-(4-ethylpiperazin-1-yl)-2-oxoethyl]-4,5-dihydro-2H-pyrimido[5′,4′:4,5]thieno[2,3-e]indazol-6-amine]
≤ 5	≤ 1	c1ccc(Cn2ncc3cc(Nc4ncnc5sc6c(c45)CCc4n[nH]cc4-6)ccc32)cc1 [Example 309, N-(1-benzyl-1H-indazol-5-yl)-4,5-dihydro-2H-pyrimido[5′,4′:4,5]thieno[2,3-e]indazol-6-amine]
